ChEMBL document CHEMBL1268962 (Bioorg Med Chem Lett, 2010)

Legend:
Format in all cases: functional, cell-based
[1] = tested on: L1210; experiment: Cytotoxicity against mouse L1210 cells after 72 hrs; settings: L1210, 72 h
[2] = tested on: HCT-116; experiment: Cytotoxicity against human HCT116 cells after 72 hrs; settings: HCT-116, 72 h
[3] = tested on: HCT-116; experiment: Cytotoxicity against vinblastine-resistant human HCT116 cells after 72 hrs; settings: HCT-116, 72 h

| SMILES | IC50 [1] | IC50 [2] | IC50 [3] |
| --- | --- | --- | --- |
| CCC1=C[C@@H]2CN(CCc3c([nH]c4ccccc34)[C@@](C(=O)OC)(c3cc4c(cc3OC)N(C)C3[C@]45CCN4CC=C[C@@](CC)([C@@H](OC(C)=O)[C@]3(O)C(=O)OC)[C@H]45)C2)C1 (some centres undefined) | 0.065 µM | 0.075 µM | 0.6 µM |
| CCOC(=O)[C@]1(c2cc3c(cc2OC)N(C)C2[C@]34CCN3CC=C[C@@](CC)([C@@H](OC(C)=O)[C@]2(O)C(=O)OC)[C@H]34)C[C@@H]2C=C(CC)CN(CCc3c1[nH]c1ccccc31)C2 (some centres undefined) | 0.62 µM | 0.64 µM | 4.1 µM |
| CCC1=C[C@@H]2CN(CCc3c([nH]c4ccccc34)[C@@](C#N)(c3cc4c(cc3OC)N(C)C3[C@]45CCN4CC=C[C@@](CC)([C@@H](OC(C)=O)[C@]3(O)C(=O)OC)[C@H]45)C2)C1 (some centres undefined) | 6.5 µM | 6.1 µM | 6.8 µM |
| CCC1=C[C@@H]2CN(CCc3c([nH]c4ccccc34)[C@@](C(N)=O)(c3cc4c(cc3OC)N(C)C3[C@]45CCN4CC=C[C@@](CC)([C@@H](OC(C)=O)[C@]3(O)C(=O)OC)[C@H]45)C2)C1 (some centres undefined) | > 10 µM | > 10 µM | > 10 µM |
| CCC1=C[C@@H]2CN(CCc3c([nH]c4ccccc34)[C@@](C=O)(c3cc4c(cc3OC)N(C)C3[C@]45CCN4CC=C[C@@](CC)([C@@H](OC(C)=O)[C@]3(O)C(=O)OC)[C@H]45)C2)C1 (some centres undefined) | 6.3 µM | 7 µM | > 10 µM |
| CCOC(=O)[C@]1(c2cc3c(cc2OC)N(C)C2[C@]34CCN3CC=C[C@@](CC)([C@@H](OC(C)=O)[C@]2(O)C(=O)OC)[C@H]34)C[C@H]2CN(CCc3c1[nH]c1ccccc31)C[C@](O)(CC)C2 (some centres undefined) | 0.06 µM | 0.07 µM | 0.83 µM |
| CC[C@]1(O)C[C@@H]2CN(CCc3c([nH]c4ccccc34)[C@@](C#N)(c3cc4c(cc3OC)N(C)C3[C@]45CCN4CC=C[C@@](CC)([C@@H](OC(C)=O)[C@]3(O)C(=O)OC)[C@H]45)C2)C1 (some centres undefined) | 0.63 µM | 0.67 µM | 7.4 µM |
| CC[C@]1(O)C[C@@H]2CN(CCc3c([nH]c4ccccc34)[C@@](C(N)=O)(c3cc4c(cc3OC)N(C)C3[C@]45CCN4CC=C[C@@](CC)([C@@H](OC(C)=O)[C@]3(O)C(=O)OC)[C@H]45)C2)C1 (some centres undefined) | > 10 µM | > 10 µM | > 10 µM |
| CC[C@]1(O)C[C@@H]2CN(CCc3c([nH]c4ccccc34)[C@@](CCO)(c3cc4c(cc3OC)N(C)C3[C@]45CCN4CC=C[C@@](CC)([C@@H](OC(C)=O)[C@]3(O)C(=O)OC)[C@H]45)C2)C1 (some centres undefined) | 6.5 µM | 5.8 µM | > 10 µM |
| CC[C@]1(O)C[C@@H]2CN(CCc3c([nH]c4ccccc34)[C@@](C(=O)OC)(c3cc4c(cc3OC)N(C)[C@H]3[C@@](O)(C(=O)OC)[C@H](OC(C)=O)[C@]5(CC)C=CCN6CC[C@]43[C@@H]65)C2)C1 [VINBLASTINE] | 0.006 µM | – | 0.6 µM |
